We go through one molecule from patent US20210386695A1 (priority 2020, published 2021).

Common to all, as to assay type: cell-based
For test [1], the system named is 501Y-V2 variant of SARS-CoV-2 pseudo-particles. Briefly: microbe, parasite or virus in culture. The settings on record: Severe acute respiratory syndrome coronavirus 2, Vero C1008.
Test [2] has as its system B.1.1.7 variant of SARS-CoV-2 pseudo-particles.
Test [3] shares this test system. The source holds these as a separate data set.
Test [4] shares this test system. Briefly: microbe, parasite or virus in culture. The settings on record: Severe acute respiratory syndrome coronavirus 2, Vero C1008.

As to `CCN(CC)C(=S)SSC(=S)N(CC)CC` [disulfiram], the EC50 amounted to 3.84 µM in test [1] and 3.18 µM in test [4]. Also, the “block of viral pseudo-particles infection” value in test [2] is reported as “dose-dependent manner”. For the same molecule, the “inhibitory capacity in furin-expressing Vero E6 cells compared with Vero E6 cells” value in test [3] is on record as “similar”.
